Consider four molecules from ChEMBL document CHEMBL4665895, “Covalent Bridging of Corilagin Improves Antiferroptosis Activity: Comparison with 1,3,6-Tri-O-galloyl-β-d-glucopyranose” (ACS Med Chem Lett, 2020).

The nature of experiment [1]: Antioxidant activity in pH 4.5 phosphate buffer assessed as PTIO radical scavenging activity after 1 hr by microplate reader based assay. It counts as functional.
In experiment [2] the test system is Bone marrow cell. The experiment in a line: Anti-ferroptosis activity against erastin-induced ferroptosis in Sprague-Dawley rat bmMSC cells assessed as increase in cell viability at 0.47 to 4.7 uM preincubated for 12 hrs followed by compound addition and measured after 12 hrs by CCK8 assay. To be noted: dose microM 0.47-4.7, time 12.0 hrs. Format: functional, cell-based. A general note: Formazan colour is commonly taken as a measure of viable cells.

Experiment [3] is described as follows: Anti-ferroptosis activity against erastin-induced ferroptosis in Sprague-Dawley rat bmMSC cells assessed as late cell death at 4.7 uM after 1 hr by AnnexinV-FITC/propidium iodide staining-based flow cytometric analysis (reference value: 19.9%). It counts as functional, Bone marrow cell. For orientation: Flow cytometry measures light scatter and fluorescence of single cells or particles in a stream.

Experiment [4] is described as follows: Potency index, ratio of trolox IC50 to test compound IC50 for antioxidant activity assessed as DPPH radical scavenging activity. Format: functional.
Experiment [5] is described as follows: Anti-ferroptosis activity against erastin-induced ferroptosis in Spargue-Dawley rat bmMSCs cells assessed as cell viability at 4.7 uM after 1 hr by AnnexinV-FITC/propidium iodide staining based flow cytometry analysis (reference value: 65.9%). Format: functional. Conditions: Bone marrow cell, read-out: Activity.
Experiment [6] is described as follows: Metal chelating activity assessed as Fe2+-compound complex formation incubated for 5 mins by colorimetry.
The nature of experiment [7]: Antioxidant activity assessed as compound-DPPH adduct formation with covalent bridging by UHPLC-ESI-Q-TOF-MS analysis. It counts as functional.
Experiment [8] is described as follows: Anti-ferroptosis activity against erastin-induced ferroptosis in Sprague-Dawley rat bmMSC cells assessed as early cell death at 4.7 uM after 1 hr by AnnexinV-FITC/propidium iodide staining-based flow cytometric analysis (reference value: 10.4%). Format: functional, Bone marrow cell.
Experiment [9] in a line: Anti-ferroptosis activity against erastin-induced ferroptosis in Sprague-Dawley rat bmMSC cells assessed as cellular death at 4.7 uM after 1 hr by AnnexinV-FITC/propidium iodide staining-based flow cytometric analysis (reference value: 3.73%). It counts as functional, Bone marrow cell.
Experiment [10] in a line: Metal chelating activity assessed as Fe2+-compound complex formation by measuring red shift by UV-visible spectrophotometry.
The nature of experiment [11]: Antioxidant activity assessed as ferric ion reducing activity using FeCl3.H2O and TPTZ incubated for 30 mins by FRAP assay. It counts as functional.
The nature of experiment [12]: Antioxidant activity assessed as DPPH free radical scavenging activity after 5 mins by microplate reader based assay. It counts as functional. (In general: DPPH is a stable violet radical that fades when it is reduced.)
A short description of experiment [13]: Antioxidant activity in pH 7.4 phosphate buffer assessed as PTIO radical scavenging activity after 1 hr by microplate reader based assay. It counts as functional.
The test system of experiment [14] is Bone marrow cell. The experiment in a line: Anti-ferroptosis activity against erastin-induced ferroptosis in Sprague-Dawley rat bmMSC cells assessed as inhibition of lipid peroxidation at 3 ug/ml preincubated for 12 hrs followed by compound addition and measured after 12 hrs by C11-Bodipy fluorescent dye based microscopic analysis. It counts as functional. To be noted: dose 3.0 µg/ml.

Calls of active or inactive are those of the source. No cut-off for these calls is given here.

The term IC50 denotes the concentration that gives 50% inhibition.

Turning to `O=C(OC[C@H]1O[C@@H](OC(=O)c2cc(O)c(O)c(O)c2)[C@H](O)[C@@H](OC(=O)c2cc(O)c(O)c(O)c2)[C@@H]1O)c1cc(O)c(O)c(O)c1`, the IC50 in [1] stood at 290 µM; in experiment [6] it was 11 µM; in [11], 35 µM; in experiment [12], 1000 nM; in experiment [13], 115 µM. For the same molecule, the inhibition result in experiment [1], in [6], in [11], in experiment [12] and in experiment [13] was “Dose-dependent effect” in each case. The result (with Bone marrow cell [2]; in experiment [7]; in [10]; in the experiment on Bone marrow cell [14]) was Active. Further, the results for the Activity in experiment [3], in experiment [8] and in experiment [9] were 9%, 10.3% and 2.2%, respectively. Moreover, in experiment [4], the Ratio IC50 was found to be 6.5. Further, in experiment [5], the viability at 4.7 µM was found to be 78.4%.

As for `O=C([O-])CC(O)(CC(=O)[O-])C(=O)[O-].[Na+].[Na+].[Na+]` [SODIUM CITRATE], the IC50 in [6] came out at 14 µM.

Regarding `Cc1c(C)c2c(c(C)c1O)CCC(C)(C(=O)O)O2` (racemic) [TROLOX], the IC50 in experiment [1] stood at 289 µM; in experiment [11], 81 µM; in [12], 7000 nM; in experiment [13] it was 445 µM.

On to `O=C(O[C@@H]1O[C@@H]2COC(=O)c3cc(O)c(O)c(O)c3-c3c(cc(O)c(O)c3O)C(=O)O[C@H]([C@H]1O)[C@@H]2O)c1cc(O)c(O)c(O)c1` [CORILAGIN], for which the half-maximal inhibitory concentration (IC50) was determined as 204 µM in experiment [1]; 7 µM in [6]; 12 µM in experiment [11]; 1000 nM in experiment [12]; 94 µM in experiment [13]. Also, the inhibition result in experiment [1], in experiment [6], in [11], in experiment [12] and in experiment [13] was “Dose-dependent effect” in each case. Also, the outcome (in the experiment with Bone marrow cell [2]; in experiment [7]; in [10]; with Bone marrow cell [14]) was Active. Besides, the figures for the Activity in experiment [3], in experiment [8] and in [9] were 7.8%, 9.2% and 2.7%, respectively. The Ratio IC50 in experiment [4] amounted to 8. Also, the viability at 4.7 µM in [5] is 80.2%.
